System: CD8+ and CD4+ T cells (autologous CD3+ Pan-T cells isolated from human normal PBMCs)
Assay: Exogenous autologous normal donor restimulation assay (15-mer overlapping peptide pools on CD1c+ dendritic cells, TNFα/IFNγ flow cytometry)
Assay type: cell-based
Details: 15-mer overlapping peptide pool; for Max. Fold Change over background CD4+ TNFαINFγ double positive DP / Max. Fold Change over background CD8+ TNFαINFγ double positive DP / Max. Frequency of CD4+ TNFαINFγ DP / Max. Frequency of CD8+ TNFαINFγ DP: Table 28, additional neoantigens, highest across normal donors; for Maximum Fold Change Over Background CD4+ cells / Maximum Fold Change Over Background CD8+ cells / Maximum Frequency of TNFα/IFNγ Double Positive CD4+ T cells / Maximum Frequency of TNFα/IFNγ Double Positive CD8+ T cells: Table 25; for Maximum Fold Change Over Background CD4+ cells: TNFα+IFNγ+ CD4+ T cells; for Maximum Fold Change Over Background CD4+ cells / Maximum Fold Change Over Background CD8+ cells: highest fold change over negative control across normal donors; for Maximum Fold Change Over Background CD8+ cells: TNFα+IFNγ+ CD8+ T cells; for Maximum Frequency of TNFα/IFNγ Double Positive CD4+ T cells / Maximum Frequency of TNFα/IFNγ Double Positive CD8+ T cells: highest frequency across normal donors
Procedure: CD1c+ Dendritic Cells (DC) isolated from human normal PBMCs were thawed using media (IMDM (Gibco) supplemented with glutamine, HEPES, 5% human serum (Sigma), and 1× Pen-Strep). DC cells were resuspended in media supplemented with IL-4 (Peprotech, 80 ng/mL) and GM-CSF (Gibco, 80 ng/mL), plated in 6 well microplates, and rested overnight at 37° C. (5% CO2). The following day, DC cells were counted and plated in a 96 well round bottom microplate at a concentration of 30,000 viable cells per well. Lyophilized peptides (15-mer overlapping peptides) were solubilized in 100% DMSO and pooled by neoantigen to between 5 mg/mL and 20 mg/mL. Neoantigen peptides pools were added to DCs for a final concentration of […] and rested for 2 hours at 37° C. (5% CO2). CEF Peptide Pool “Plus” (Cellular Technologies, Ltd.) was utilized as a positive control and DMSO at the same final concentration as the experimental peptides was utilized as a negative control. After 2 hours, DC cells were irradiated with 50 gray of ionizing radiation. Autologous CD3+ Pan-T cells isolated from human normal PBMCs were thawed using media. Following irradiation, autologous Pan-T cells were added to the irradiated DCs at 300,000 viable cells per well. Human IL-15 (Peprotech) was added to all wells at final concentration of 10 ng/mL.
Plates were incubated at 37° C. (5% CO2) for a total of 12 days. Media was refreshed every 2-3 days with IL-15 (10 ng/mL final concentration) and IL-2 (R&D systems, 10 IU/mL final concentration). On day 11 cells were re-stimulated with identical experimental peptide pools or controls, at same concentration as peptide stimulation on Day 1. Protein Inhibitor Cocktail (eBioscience) was added to every well and plate was incubated overnight at 37° C. (5% CO2).
On day 12, cells were stained for intracellular flow cytometry analysis. The cells were washed with PBS and stained with Live/Dead Fixable Aqua Dead Cell stain (Thermo-Fisher). Following the live/dead stain, cells were blocked using Biotin-Free Fc Receptor Blocker (Accurate Chemical & Scientific Corp). Extracellular cellular flow panel (1 μL/antibody per well in 50 μL) consisted of CD3 PerCP-Cy5.5 (Biolegend), CD4 BV421 (Biolegend), and CD8 APC-Cy7 (Biolegend). After extracellular staining, cells were fixed using Foxp3/fTranscription Factor Staining Buffer Set (eBioscience) and stained for intracellular proteins (1:50 dilution) using TNFα FITC (R&D Systems) and IFNγ BV785 (Biolegend). Cells were washed and resuspended in stain buffer and analyzed using a BD Celesta flow cytometer.
Flow cytometry cell staining analysis was completed using FlowJo v10. Cells were gated on live, singlet, CD3+ cells. The CD8+ and CD4+ T cells were analyzed for TNFα/IFNγ expression and the frequency of double positive TNFα/IFNγ CD8+ and the frequency of double positive TNFα/IFNγ CD4+ T cells were recorded. Responses were assessed to be positive when the frequency of double positive TNFα/IFNγ CD8+ or TNFα/IFNγ CD4+ T cells due to stimulation with an experimental peptide pool was increased greater than or equal to 3-fold over the DMSO only negative control for that donor and at least 0.01%.
Overlapping 15-mer peptides were designed to span each neoantigen incorporated into NeoGAd20 and NeoMVA to assess their ability to activate T cells using the exogenous autologous normal donor restimulation assay described in Example 1 as pools using TNFα and IFNγ production by CD8^+ and CD4^+ T cells as a readout.
Immunogenicity of various additional identified neoantigens was assessed. Overlapping 15-mer peptides were designed to span each neoantigen similarly to what was done in Example 11 to assess their ability to activate T cells using the exogenous autologous normal donor restimulation assay described in Example 1 as pools using TNFα and IFNγ production by CD8^+ and CD4^+ T cells as a readout.

| Substance | Max. Fold Change over background CD4+ TNFαINFγ double positive DP | Max. Fold Change over background CD8+ TNFαINFγ double positive DP | Max. Frequency of CD4+ TNFαINFγ DP | Max. Frequency of CD8+ TNFαINFγ DP | Maximum Fold Change Over Background CD4+ cells | Maximum Fold Change Over Background CD8+ cells | Maximum Frequency of TNFα/IFNγ Double Positive CD4+ T cells | Maximum Frequency of TNFα/IFNγ Double Positive CD8+ T cells |
| --- | --- | --- | --- | --- | --- | --- | --- | --- |
| MS4 (SYFSLTNIFNFV; listed as Homo sapiens) | 367.35 | 24.13 | 2.43 | 0.76 |  |  |  |  |
| IIDSDKIMAVCMGCLLTRHVQCQAMEMQQ (listed as Homo sapiens) [AS54, ABCC4 alternative splicing] | 17.87 | 88.15 | 0.18 | 8.33 |  |  |  |  |
| GMECTLGQVGAPSPRREEDGWRGGHSRFKADVPAPQGPCWGGQPGSAPSSAPPEQSLLD (listed as Homo sapiens) [AS51, CPNE7 alternative splicing] |  |  |  |  | 8.75 | 33.13 | 0.140 | 0.530 |
| FMIGELVGELCCQLTFRLPFLESLCQAVVTQALRFNPSFQEVCIYQDTDLM (listed as Homo sapiens) [AS2, SLC30A4 alternative splicing] | 110.68 | 5.06 | 0.86 | 0.09 |  |  |  |  |
| DGHSYTSKVNCLLLQDGFHGCVSITGAAGRRNLSIFLFLMLCKLEFHA (listed as Homo sapiens) [AS55.1, SPOCK1 alternative splicing] | 20.66 | 25.26 | 0.08 | 1.47 |  |  |  |  |
| MFLRKEQQVGPHSFSML (listed as Homo sapiens) [AS14, IQCG alternative splicing] | 1.49 | 3.81 | 0.06 | 0.12 |  |  |  |  |
| NSKMALNSEALSVVSE (listed as Homo sapiens) [FUS5, TMPRSS2->ERG gene fusion] |  |  |  |  | 3.43 | 32.50 | 0.048 | 0.390 |
| CGASACDVSLIAMDSA (listed as Homo sapiens) [FUS1, SLC45A3->ELK4 gene fusion] |  |  |  |  | 8.33 | 1.94 | 0.100 | 0.031 |
| KRSFAVTERII (listed as Homo sapiens) [AS13, GRIN3A alternative splicing] |  |  |  |  | 1.96 | 1.67 | 0.05 | 0.10 |
| DYWAQKEKISIPRTHLC (listed as Homo sapiens) [AS6, ACSM1 alternative splicing] |  |  |  |  | 31.67 | 6.50 | 0.380 | 0.078 |
| KWNKNWTATLGALTIRGHKLLCHLPHLLSSVQQTCRSSSR (listed as Homo sapiens) [AS46, SERINC5 alternative splicing] | 157.98 | 11.6 | 0.29 | 0.87 |  |  |  |  |
| QQLRIFCAAMASNEDFS (listed as Homo sapiens) [FUS11, MBTPS2->YY2 gene fusion] | 28.57 | 2.63 | 0.16 | 0.1 |  |  |  |  |
| MS9 (SALSGNSWV; listed as Homo sapiens) | 455.63 | 1.38 | 1.72 | 0.1 |  |  |  |  |
| LQERMELLACGAERGAGGWGGGGGGGGGDRRGGGGSAPALADFAGGRG (listed as Homo sapiens) [FUS24, DMPK->SIX5 gene fusion] | 4.4 | 8.53 | 0.05 | 0.64 |  |  |  |  |
| AGAGTISEGSVLHGQRLECDARRFFGCGTTILAEWEHH (listed as Homo sapiens) [AS59, ACSL3 alternative splicing] | 59.58 | 4.22 | 0.3 | 0.08 |  |  |  |  |
| DGFSGSLFAVVTRRCYFLKWRTIFPQSLMWL (listed as Homo sapiens) [FUS18, OPN3->CHML gene fusion] | 31.76 | 42.33 | 0.04 | 0.91 |  |  |  |  |
| ANLKGTLQVRSGQAVSPR (listed as Homo sapiens) [AS21, RECQL4 alternative splicing] | 1.7 | 3.81 | 0.07 | 0.12 |  |  |  |  |
| DCMLSEEGGQARRGGSLCSLAAHTIASAARGRFLSRLSNFCAVVKASRGAPSCTWE (listed as Homo sapiens) [AS40, LRRC45 alternative splicing] | 15.34 | 178.52 | 0.89 | 2.41 |  |  |  |  |
| HVVGYGHLDTSGSSSSSSWP (listed as Homo sapiens) [FUS15, D2HGDH->GAL3ST2 gene fusion] |  |  |  |  | 2.79 | 1.75 | 0.039 | 0.028 |
